Data from BigSolDB 2.1.

COC(=O)c1c(Cl)nn(C)c1S(=O)(=O)NC(=O)Nc1nc(OC)cc(OC)n1
solubility (mole fraction)
Conditions | 278.15 K | 283.15 K | 288.15 K | 293.15 K | 298.15 K | 303.15 K | 308.15 K | 313.15 K | 318.15 K | 323.15 K
in DMF | 0.000768 | 0.000905 | 0.00105 | 0.00123 | 0.00142 | 0.0016 | 0.00182 | 0.00204 | 0.00227 | 0.00254
in ethanol | 3.56e-05 | 4.18e-05 | 4.87e-05 | 5.64e-05 | 6.48e-05 | 7.29e-05 | 8.22e-05 | 9.25e-05 | 0.000103 | 0.000116
in isopropanol | 3.3e-06 | 3.57e-06 | 3.85e-06 | 4.17e-06 | 4.51e-06 | 4.93e-06 | 5.33e-06 | 5.71e-06 | 6.19e-06 | 6.64e-06
in water | 3.24e-07 | 3.38e-07 | 3.51e-07 | 3.66e-07 | 3.81e-07 | 3.96e-07 | 4.11e-07 | 4.26e-07 | 4.44e-07 | 4.62e-07
